The values that follow come from US20190071670A1, “Methods Of Treatment For Alpha-1 Antitrypsin Deficiency” (Arrowhead Pharmaceuticals, Inc., priority 2016, published 2019).

Strand notation (5' to 3'): a small letter for the sugar, then the base; units joined by * are phosphorothioate-linked, units joined directly phosphodiester-linked; [ ] holds rarer units or linkages, { } end groups; capitals alone tell only the bases. {Chol-TEG} = cholesterol-triethylene glycol conjugate; [UNA-N] = unlocked nucleic acid (N: the base); [invdT] = inverted (3'-3') thymidine; d = 2'-deoxy (DNA); m = 2'-O-methyl; r = 2'-OH (RNA); f = 2'-fluoro

The test system of data set [1] is Z-AAT. The note with it: PiZ mouse model of AATD, cited from earlier work.
The test system of data set [2] is hAAT mRNA. The experiment in a line: Liver hAAT mRNA levels in PiZ mice (RT-qPCR). Format: in vivo, human (expressed in PiZ mice). To be noted: PiZ mice liver. The method, then:
Compositions comprising double-stranded AAT expression-inhibiting oligomeric compounds were administered to PiZ mice. PiZ mice harbor the human PiZ AAT mutant allele and model human AATD (Carlson et al. Journal of Clinical Investigation 1989). […] Liver hAAT mRNA production was measured at days 3 and 10. Reduced mRNA levels correlated with decreased serum hAAT protein levels, except that mRNA reduction preceded protein reduction by a few days. The level of liver hAAT mRNA production was measured at day 3 and day 10 following a single dose of AAT RNAi agent with MLP delivery polymer in PiZ mice. A sustained decrease in liver hAAT mRNA levels was observed that correlated with the decrease observed in serum hAAT protein levels.
(§1) Human AAT protein levels in serum were monitored for 29 days. At the indicated times, blood samples were collected and assayed for hAAT by ELISA. Day 1 samples were collected prior to trigger administration. For mRNA analysis, 3-4 mice were euthanized at each of days 3, 8, 15, 22, and 29. For euthanized mice, cardiac stick were performed for serum isolation for AAT ELISA (200 μl serum). Half of the left lateral liver lobe was collected and snap-freeze in liquid nitrogen for RNA isolation. The remainder of the left lobes were embedded into paraffin blocks for PAS-D staining with hematoxylin as counter-stain. Serum hAAT levels in mice given AAT Duplex Pair SEQ ID NO: 5/6 were 95% reduced on day 8 and remained reduced to day 29, at which time they were 79% reduced. Mice given AAT Duplex Pair SEQ ID NO: 5/6 were euthanized at either day 3, 8, 15, 22 or 29. Mice given saline or Luciferase siRNA control (SEQ ID 7/8) were euthanized on day 29. Levels of hAAT mRNA in the livers were measured by RT-qPCR. The hAAT mRNA in mice given AAT Duplex Pair SEQ ID NO: 5/6 was reduced by 97% on day 3 and remained reduced on day 29, at which time levels were 56% reduced. The size of the globules and the area of the liver covered by globules was digitally quantitated from liver specimens stained with PAS-D. Duplex Pair SEQ ID NO: 5/6 treated mice had 70% smaller globules at day 15 and 62% smaller globules at day 29. The area of the liver covered with globules was 83% reduced on day 15 and 72% reduced on day 29 (FIG. 5).
(In general: Quantitative PCR measures a nucleic acid by following its amplification.)

In data set [3] the test system is hAAT. The experiment in a line: Serum hAAT protein levels in PiZ mice (ELISA). Type of data set: in vivo, human (expressed in PiZ mice). To be noted: for Serum hAAT normalized to day 1: PiZ mice, single IV 6 mg/kg with 6 mg/kg MLP delivery polymer; for Serum hAAT normalized to day 1 and controls: female PiZ mice, single IV 8 mg/kg + 8 mg/kg MLP delivery polymer, mice euthanized Day 29. The procedure:
as §1
In general terms: In an ELISA, binding on a coated surface is turned into a signal by an enzyme label.

`NC(=O)N1c2ccccc2C=Cc2ccccc21` [carbamazepine]: the “Z-AAT globules in hepatocytes and hepatic fibrosis” value in data set [1] was “mediate a reduction in Z-AAT globules in hepatocytes and ameliorated hepatic fibrosis”.

Take `OCCN1CCN(CCCN2c3ccccc3Sc3ccc(C(F)(F)F)cc32)CC1` [fluphenazine]: in data set [1], the “Z-AAT globules in hepatocytes and hepatic fibrosis” value is “mediate a reduction in Z-AAT globules in hepatocytes and ameliorated hepatic fibrosis”.

Turning to `C[C@H](CC(=O)O)[C@H]1CC[C@H]2[C@@H]3[C@@H](O)C[C@@H]4C[C@H](O)CC[C@]4(C)[C@H]3CC[C@]12C` [nor-UDCA, nor-ursodeoxycholic acid], the “apoptotic signaling and accumulation of mutant Z-AAT in hepatocytes” value in data set [1] (associated with an increase in hepatic autophagy) was “reduced apoptotic signaling and reduced accumulation of mutant Z-AAT in hepatocytes”.

Take “Luciferase siRNA control: Luciferase double-stranded siRNA control, SEQ ID NO: 7 and Chol-TEG SEQ ID NO: 8 (chain 1 dTfCmGfAmAfG[UNA-U]fAmCfUmCfAmGfCmGfUmAfAmGdT*dT; chain 2 {Chol-TEG}-mUrAmUfCmUfUmAfCmGfCmUfGmAfGmUfAmCfUmUfCmGfA[invdT]) [reference compound]”: the “Average relative mRNA level (hAAT)” value in data set [2] (one injection 8 mg/kg + 8 mg/kg MLP delivery polymer, Day 29) is 1.031. In data set [2] (single IV 6 mg/kg with 6 mg/kg MLP delivery polymer, relative to mouse β-actin mRNA, day 3), the “hAAT mRNA level” value was 1.06 ± 0.20. The results for the “Serum hAAT normalized to day 1” value in data set [3] (day 1 (reference)), in data set [3] (day 3) and in data set [3] (day −2 (pre-dose)) were 1.00, 1.110 ± 0.147 and 0.766 ± 0.219, respectively. The “Serum hAAT normalized to day 1 and controls” value was 1.000 in data set [3] (Day 1); 0.994 ± 0.153 in data set [3] (Day 3); 1.090 ± 0.092 in data set [3] (Day 8); 0.890 ± 0.080 in data set [3] (Day 15); 1.171 ± 0.095 in data set [3] (Day 22); 0.797 ± 0.074 in data set [3] (Day 29). For the same compound, the “Serum hAAT normalized to day 1 and controls” value in data set [3] (Day −2) was determined as 1.268 ± 0.143.
